Source: BindingDB's records for doi:10.1002/ps.1855 (2010)
pIC50: −log10 of the molar value.

molecular target: not listed separately; assay: Inhibition of photosynthetic electron transport protein complex in Spinacia oleracea (spinach) leaf thylakoid membranes measured at 30 seconds intervals for 10 min

| SMILES | pIC50 |
| --- | --- |
| Cc1cccc(/C=C2/C=C(Cc3ccccc3)C(=O)O2)c1 | 4.13 |
| O=C1O/C(=C\c2ccccc2Cl)C=C1Cc1ccccc1 | 4.72 |
| O=C1O/C(=C\c2cccc(Br)c2)C=C1Cc1ccccc1 | 3.77 |
| CN(C)c1cccc(/C=C2/C=C(Cc3ccccc3)C(=O)O2)c1 | 4.88 |
| CCc1ccc(/C=C2/C=C(Cc3ccccc3)C(=O)O2)cc1 | 5.04 |
| O=C1O/C(=C\c2cccc(F)c2)C=C1Cc1ccccc1 | 4.69 |
| O=C1O/C(=C\c2ccccc2Br)C=C1Cc1ccccc1 | 4.59 |
| CN(C)c1ccc(/C=C2/C=C(Cc3ccccc3)C(=O)O2)c(Cl)c1 | < 3.70 |
| COc1cc(OC)c(/C=C2\C=C(Cc3ccccc3)C(=O)O2)c(OC)c1 | 4.90 |
| O=C1O/C(=C\c2c(F)c(F)c(F)c(F)c2F)C=C1Cc1ccccc1 | 4.12 |
| O=C1O/C(=C\c2ccc(F)cc2)C=C1Cc1ccccc1 | 4.66 |
| O=C1O/C(=C\c2cccc([N+](=O)[O-])c2)C=C1Cc1ccccc1 | 4.64 |
| CN(C)c1ccc(/C=C2/C=C(Cc3ccccc3)C(=O)O2)cc1 | < 3.70 |
| O=C1O/C(=C\c2cccc(Cl)c2)C=C1Cc1ccccc1 | 4.35 |

molecular target: Cytochrome b6-f complex subunit 4 (Spinacia oleracea, UniProt P00166); assay: Inhibition of photosynthetic electron transport protein complex in Spinacia oleracea (spinach) leaf thylakoid membranes measured at 30 seconds intervals for 10 min
Sequence (P00166 whole entry, one chain of several): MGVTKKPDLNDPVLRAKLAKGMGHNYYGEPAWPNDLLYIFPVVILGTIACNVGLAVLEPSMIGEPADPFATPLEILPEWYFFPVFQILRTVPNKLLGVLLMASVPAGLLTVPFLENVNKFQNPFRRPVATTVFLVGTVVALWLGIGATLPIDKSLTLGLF

| SMILES | pIC50 |
| --- | --- |
| O=C1O/C(=C\c2ccccc2)C=C1Cc1ccccc1 | 4.71 |
| O=C1O/C(=C\c2ccc3c(c2)OCO3)C=C1Cc1ccccc1 | < 3.70 |
| O=C1O/C(=C\c2ccccc2O)C=C1Cc1ccccc1 | < 3.70 |
| O=C1O/C(=C\c2cccc(C(F)(F)F)c2)C=C1Cc1ccccc1 | 5.00 |
| O=C1O/C(=C\c2ccccc2F)C=C1Cc1ccccc1 | 5.00 |
| N#Cc1cccc(/C=C2/C=C(Cc3ccccc3)C(=O)O2)c1 | < 3.70 |
| O=C1O/C(=C\c2ccccc2C(F)(F)F)C=C1Cc1ccccc1 | 4.93 |
| O=C1O/C(=C\c2cccc(O)c2)C=C1Cc1ccccc1 | < 3.70 |
| COc1ccc(/C=C2/C=C(Cc3ccccc3)C(=O)O2)cc1 | 4.27 |
| N#Cc1ccc(/C=C2/C=C(Cc3ccccc3)C(=O)O2)cc1 | < 3.70 |
| O=C1O/C(=C\c2ccc(Cl)cc2)C=C1Cc1ccccc1 | < 3.70 |
| O=C1O/C(=C\c2ccc(C(F)(F)F)cc2)C=C1Cc1ccccc1 | 5.08 |
| COc1ccc(/C=C2/C=C(Cc3ccccc3)C(=O)O2)cc1O | < 3.70 |
| Cc1ccc(/C=C2/C=C(Cc3ccccc3)C(=O)O2)cc1 | < 3.70 |
| COc1ccc(OC)c(/C=C2/C=C(Cc3ccccc3)C(=O)O2)c1 | 4.71 |
| O=C1O/C(=C\c2ccc([N+](=O)[O-])cc2)C=C1Cc1ccccc1 | 5.77 |
| O=C1O/C(=C\c2ccc(-c3ccccc3)cc2)C=C1Cc1ccccc1 | < 3.70 |
| Cc1ccccc1/C=C1/C=C(Cc2ccccc2)C(=O)O1 | 4.63 |
| O=C1O/C(=C\c2ccc(Br)cc2)C=C1Cc1ccccc1 | < 3.70 |
| O=C1O/C(=C\c2ccc(O)cc2)C=C1Cc1ccccc1 | < 3.70 |
